Reference: patent publication US20220401662A1, “ACOUSTIC NEBULISER FOR DELIVERY OF ACTIVE AGENTS” (Royal Melbourne Institute of Technology, priority 2020, published 2022)

Assay: human clinical trial of lung delivery by inhalation of [99mTc]DTPA aerosol from the nebuliser
Type: in vivo
Conditions: for Left lung dose / Right lung dose / Total lung dose: inhalation via described nebuliser, unadjusted
Source text: Nebulisers in accordance with the described embodiments have been subject to human clinical trials to determine efficiency of delivery of active agents to the lungs by inhalation using Technetium-99m DTPA aerosol ([^99mTc]DTPA aerosol).

Substance: Technetium-99m DTPA [[^99mTc]DTPA aerosol]
- Left lung dose (Volunteer 1): 7.15 MBq
- Right lung dose (Volunteer 1): 8.25 MBq
- Total lung dose (Volunteer 1): 15.4 MBq
- Left lung dose (Volunteer 2): 25.2 MBq
- Right lung dose (Volunteer 2): 27.1 MBq
- Total lung dose (Volunteer 2): 52.3 MBq
- Left lung dose (Volunteer 3): 22.2 MBq
- Right lung dose (Volunteer 3): 21.9 MBq
- Total lung dose (Volunteer 3): 44.1 MBq
- Left lung dose (Volunteer 4): 23.3 MBq
- Right lung dose (Volunteer 4): 26.6 MBq
- Total lung dose (Volunteer 4): 49.9 MBq
- efficiency of delivery to the lungs by inhalation (human clinical trials, initial results): effective delivery of nebulised active agent to the target tissue
